From publication PMC4965013, “Open Source Drug Discovery with the Malaria Box Compound Collection for Neglected Diseases and Beyond” (PLoS Pathogens, 2016)

What was measured:
PfMTIP-MyoA = biological target: T1, PfMTIP-MyoA (Plasmodium falciparum, UniProt Q8I4W8); assay: SPR MTIP-MyoA PPI; assay type: binding, P. falciparum
T1 construct: made in house; host or cells: E. coli BL21 DE3 (peptide)
Procedure: Atg8-Atg3, Aldolase-TRAP, and Aldolase-MTRAP, MTIP-MyoA, GAP50-FactorH protein-protein interaction (PPI) inhibitor and Surface Plasmon Resonance screening to identify protein-protein interaction inhibitors, Bosch group (Atg8-Atg3 interactions are published in ref [38], rest are not or as noted below). In a primary screen, the Malaria Box compounds were screened at 5 µM final concentration in 1x PBS supplemented with 0.01% (v/v) P20 and 1% (v/v) DMSO using a Biacore 3000 instrument. While one protein was covalently attached to the chip surface via amine coupling, the analyte was passed over the chip in the presence and absence of Malaria Box compounds. Every 12th injection a positive control was passed over the chip to ensure constant binding of the partner protein during the duration of the experiment. Malaria Box compounds resulting in more than 25% decrease in binding of the two proteins to each other were further considered in a dose-response screen ranging from 50 µM to 200 nM. Similar to the primary screen, a positive control, consisting of the protein partner alone in the absence of small molecule compounds, was passed over the flow cells to ensure that the chip surface had not decayed over the course of the experiment. All SPR interaction studies were performed as previously described. […]

PfPMT = PfPMT (Plasmodium falciparum, UniProt Q8IDQ9); assay: PfPMT gene replacement yeast growth; settings: 100µM
[1] = system: Saccharomyces cerevisiae strain WC081; assay: Yeast disc diffusion in combination with artemisinin; assay type: cell-based; settings: 10 µL of 1 mM on disc, 0.2 µM artemisinin, read-out: larger zone size with artemisinin (SCG+artemisinin minus SCG)
Text: Yeast screening for enhanced drug effects in combination with artemisinin, Jensen group (data presented first in this paper). […] Yeast (S. cerevisiae) was used as a proxy for P. falciparum, because the killing of S. cerevisiae and P. falciparum appear to have similarities. Saccharomyces cerevisiae strain WC081 (Mat a, leu2∆0, lys2∆0, ura3∆0, his3∆1, pdr1∆::HIS3, pdr3∆::kanMX4) was utilized and was originally derived from strain BY4742. Regulators of Multi-drug resistance transporters have been deleted from this strain to enhance the toxicity of compounds. Assay utilized the disc diffusion method with the observance of a clear zone indicating inhibition of growth. Synthetic complete medium containing 3% glycerol as a carbon source (SCG) was used in each assay. 10 µL of each compound at 1 mM was added to a paper disc which was placed on SCG and SCG^+artemisinin (0.2 µM) plates seeded with 10e6 yeast cells. Plates were incubated at 30 °C for 5 days and clear zones were measured. Compounds that produced a larger clear zone in the presence of artemisinin were considered to have an additive interaction with artemisinin. Results are reported as diameter of clear zone on SCG^+artemisinin plates - diameter of clear zone on SCG plates without artemisinin.

[2] = system: P. falciparum 3D7 trophozoites; assay: Metabolomic fingerprint profiling LC-MS; assay type: cell-based, Plasmodium falciparum; design: UDP-D-glucose / ADP-D-glucose: unit not given here
P. falciparum = assay: EC50 listed in S2 Table Metabolomics (used to set the concentration tested); assay type: cell-based; settings: Plasmodium falciparum; EC50 used for Factor_XEC50 in metabolomics; read-out: EC50_nM
[3] = metabolite level change after treatment

T1 sequence (Q8I4W8 entry or part of it): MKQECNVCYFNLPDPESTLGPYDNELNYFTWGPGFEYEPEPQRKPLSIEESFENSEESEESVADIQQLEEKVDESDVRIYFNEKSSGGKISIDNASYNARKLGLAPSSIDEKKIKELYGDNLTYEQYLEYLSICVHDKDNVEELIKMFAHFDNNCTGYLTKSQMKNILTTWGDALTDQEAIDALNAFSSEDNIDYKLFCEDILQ
Sequence of PfPMT (Q8IDQ9 whole entry, the tested form may be a part): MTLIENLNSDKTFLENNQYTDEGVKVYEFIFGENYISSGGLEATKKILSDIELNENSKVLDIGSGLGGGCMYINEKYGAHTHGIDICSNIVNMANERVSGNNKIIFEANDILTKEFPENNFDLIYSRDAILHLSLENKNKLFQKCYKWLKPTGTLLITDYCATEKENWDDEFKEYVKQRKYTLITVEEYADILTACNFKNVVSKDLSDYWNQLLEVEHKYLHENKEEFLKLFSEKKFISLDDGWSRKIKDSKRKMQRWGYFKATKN

O=C(NC(c1ccccc1)c1ccc2cccnc2c1O)c1ccccc1 (stereo not drawn) [MMV666080]
identified against the PfMTIP-MyoA interaction (PfMTIP-MyoA): identified against the PfMTIP-MyoA interaction
candidate inhibitors of PfPMT activity (yeast functional assay) (PfPMT): candidate inhibitors of PfPMT activity

Cc1cc(Nc2ccc3ccccc3c2)n2ncnc2n1 [MMV011099]
zone of inhibition at 1000 µM [1]: 7 mm
Acetyllysine ([2]; S2 Table Metabolomics, metabolite Acetyllysine): 0.02852
N-acetyl-L-ornithine ([2]; S2 Table Metabolomics, metabolite N-acetyl-L-ornithine): 0.1505
N-carbamoyl-L-aspartate ([2]; S2 Table Metabolomics, metabolite N-carbamoyl-L-aspartate): 3.868
NADPH ([2]; S2 Table Metabolomics, metabolite NADPH): 1.182
dAMP ([2]; S2 Table Metabolomics, metabolite dAMP): -0.08024
dCMP ([2]; S2 Table Metabolomics, metabolite dCMP): -0.5906
dTDP ([2]; S2 Table Metabolomics, metabolite dTDP): -1.017
dTMP ([2]; S2 Table Metabolomics, metabolite dTMP): -0.9279
dTTP ([2]; S2 Table Metabolomics, metabolite dTTP): -1.156
dihydroorotate ([2]; S2 Table Metabolomics, metabolite dihydroorotate): 4.157
orotate ([2]; S2 Table Metabolomics, metabolite orotate): -1.974
DLH ([2]; S2 Table Metabolomics, peptide DLH): 0.4532
DLS/SDL/SID ([2]; S2 Table Metabolomics, peptide DLS/SDL/SID): 0.4641
PD ([2]; S2 Table Metabolomics, peptide PD): 0.1181
PEE ([2]; S2 Table Metabolomics, peptide PEE): 0.2947
PVNF ([2]; S2 Table Metabolomics, peptide PVNF): 0.2329
3-phosphoglycerate ([2]; metabolite 3-phosphoglycerate, S2 Table Metabolomics): -0.2056
ADP-D-glucose ([2]; metabolite ADP-D-glucose, S2 Table Metabolomics): 0.1525
ATP ([2]; metabolite ATP, S2 Table Metabolomics): 0.2332
CDP ([2]; metabolite CDP, S2 Table Metabolomics, change in metabolite level after compound treatment): -0.709
D-sedoheptulose-1/7-phosphate ([2]; metabolite D-sedoheptulose-1/7-phosphate, S2 Table Metabolomics, change in metabolite level after compound treatment): 0.01889
FAD ([2]; metabolite FAD, S2 Table Metabolomics): 0.08024
GMP ([2]; metabolite GMP, S2 Table Metabolomics, change in metabolite level after compound treatment): 0.02967
NAD+ ([2]; metabolite NAD+, S2 Table Metabolomics): -0.0008425
NADP+ ([2]; metabolite NADP+, S2 Table Metabolomics): 0.1353
Octoluse Bisphosphate ([2]; metabolite Octoluse Bisphosphate, S2 Table Metabolomics, change in metabolite level after compound treatment): 0.08614
Pyroglutamic acid ([2]; metabolite Pyroglutamic acid, S2 Table Metabolomics): -0.4752
UDP-D-glucose ([2]; metabolite UDP-D-glucose, S2 Table Metabolomics): 0.067
UDP-D-glucuronate ([2]; metabolite UDP-D-glucuronate, S2 Table Metabolomics): -0.02366
UDP-N-acetyl-glucosamine ([2]; metabolite UDP-N-acetyl-glucosamine, S2 Table Metabolomics): -0.1127
UDP ([2]; metabolite UDP, S2 Table Metabolomics, change in metabolite level after compound treatment): -1.3628
UMP ([2]; metabolite UMP, S2 Table Metabolomics, change in metabolite level after compound treatment): -1.675
UTP ([2]; metabolite UTP, S2 Table Metabolomics, change in metabolite level after compound treatment): -1.64
a-ketoglutarate ([2]; metabolite a-ketoglutarate, S2 Table Metabolomics): -1.062
citrate/isocitrate ([2]; metabolite citrate/isocitrate, S2 Table Metabolomics, change in metabolite level after compound treatment): -1.28
cytidine ([2]; metabolite cytidine, S2 Table Metabolomics): 0.7717
dATP ([2]; metabolite dATP, S2 Table Metabolomics): 0.5433
dGMP/AMP ([2]; metabolite dGMP/AMP, S2 Table Metabolomics, change in metabolite level after compound treatment): -0.03244
fumarate ([2]; metabolite fumarate, S2 Table Metabolomics, change in metabolite level after compound treatment): -1.091
glucose-1/6-phosphate ([2]; metabolite glucose-1/6-phosphate, S2 Table Metabolomics, change in metabolite level after compound treatment): 0.2093
glycerate ([2]; metabolite glycerate, S2 Table Metabolomics, change in metabolite level after compound treatment): -1.246
guanine ([2]; metabolite guanine, S2 Table Metabolomics, change in metabolite level after compound treatment): -0.547
guanosine ([2]; metabolite guanosine, S2 Table Metabolomics, change in metabolite level after compound treatment): -1.524
hypoxanthine ([2]; metabolite hypoxanthine, S2 Table Metabolomics): 0.001118
indole ([2]; metabolite indole, S2 Table Metabolomics): 0.03287
inosine ([2]; metabolite inosine, S2 Table Metabolomics, change in metabolite level after compound treatment): -0.4013
2_3-Diphosphoglyceric acid [2, 3]: -0.01924
4-phosphopantothenate [2, 3]: -0.6208
6-phospho-D-gluconate [2, 3]: 0.1135
FMN [2, 3]: -0.06047
IMP [2, 3]: -0.0451
Pyrophosphate [2, 3]: 0.1187
Sedoheptoluse bisphosphate [2, 3]: -0.1999
cyclic-AMP [2, 3]: -0.1393
glutathione disulfide [2, 3]: -0.2357
lactate [2, 3]: -0.8843
myo-inositol [2, 3]: -1.14
nicotinate ([2]; metabolite nicotinate, S2 Table Metabolomics): -1.365
ornithine ([2]; metabolite ornithine, S2 Table Metabolomics): 0.02843
phosphoenolpyruvate ([2]; metabolite phosphoenolpyruvate, S2 Table Metabolomics): -0.5081
pyruvate ([2]; metabolite pyruvate, S2 Table Metabolomics, change in metabolite level after compound treatment): -1.9111
ribose-phosphate ([2]; metabolite ribose-phosphate, S2 Table Metabolomics): 0.184
sarcosine/alanine ([2]; metabolite sarcosine/alanine, S2 Table Metabolomics, change in metabolite level after compound treatment): -0.4398
sn-glycerol-3-phosphate ([2]; metabolite sn-glycerol-3-phosphate, S2 Table Metabolomics): -0.3081
succinate/methylmalonic acid ([2]; metabolite succinate/methylmalonic acid, S2 Table Metabolomics, change in metabolite level after compound treatment): -0.5239
uridine ([2]; metabolite uridine, S2 Table Metabolomics, change in metabolite level after compound treatment): -1.376
xanthosine ([2]; metabolite xanthosine, S2 Table Metabolomics, change in metabolite level after compound treatment): -0.974
EC50 (P. falciparum): 242 nM

Cc1ccc(CN2CCC(C(=O)Nc3ccc(-c4cc5ccccc5[nH]4)cc3)CC2)o1 [MMV666071]
identified against the PfMTIP-MyoA interaction (PfMTIP-MyoA): identified against the PfMTIP-MyoA interaction
